Data: patent publication US11339130B1 (Blade Therapeutics, Inc., priority 2016, dated 2022)

What was measured:
[1] = system: Calpain activity in SH-SY5Y cells (SBDP-150); assay: SH-SY5Y Spectrin western blot assay (SBDP-150 breakdown product, A23187-induced); format: cell-based; details: Homo sapiens; SH-SY5Y cells, A23187-induced SBDP-150, western blot; read-out: SH-SY5Y Spectrin IC50
Human Calpain 2/NS1 = target: T1, Human Calpain 2/NS1 (Homo sapiens, UniProt P17655); assay: Calpain inhibition continuous fluorescence (FRET) assay, Human Calpain 2/NS1; format: biochemical; details: read-out: Human Calpain 2/NS1 IC50
T1 sequence (P17655 1-700): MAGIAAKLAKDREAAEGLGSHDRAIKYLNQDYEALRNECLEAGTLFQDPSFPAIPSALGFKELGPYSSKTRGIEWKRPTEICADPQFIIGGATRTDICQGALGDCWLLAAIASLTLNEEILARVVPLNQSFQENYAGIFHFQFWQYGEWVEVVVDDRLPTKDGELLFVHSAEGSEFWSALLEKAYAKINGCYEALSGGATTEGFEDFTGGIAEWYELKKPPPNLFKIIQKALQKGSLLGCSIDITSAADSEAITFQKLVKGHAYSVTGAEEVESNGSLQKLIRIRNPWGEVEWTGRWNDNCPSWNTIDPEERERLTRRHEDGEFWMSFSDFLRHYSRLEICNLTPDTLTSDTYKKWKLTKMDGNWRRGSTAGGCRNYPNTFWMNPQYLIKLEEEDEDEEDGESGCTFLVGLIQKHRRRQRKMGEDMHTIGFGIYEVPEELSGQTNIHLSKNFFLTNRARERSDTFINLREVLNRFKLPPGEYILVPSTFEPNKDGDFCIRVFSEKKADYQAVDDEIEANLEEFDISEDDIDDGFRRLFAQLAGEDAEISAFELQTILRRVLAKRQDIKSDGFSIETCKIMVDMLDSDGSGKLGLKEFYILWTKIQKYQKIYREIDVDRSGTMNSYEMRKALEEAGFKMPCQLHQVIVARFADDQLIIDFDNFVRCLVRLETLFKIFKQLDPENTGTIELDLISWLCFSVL
T1 sequence (P04632 1-268 partner): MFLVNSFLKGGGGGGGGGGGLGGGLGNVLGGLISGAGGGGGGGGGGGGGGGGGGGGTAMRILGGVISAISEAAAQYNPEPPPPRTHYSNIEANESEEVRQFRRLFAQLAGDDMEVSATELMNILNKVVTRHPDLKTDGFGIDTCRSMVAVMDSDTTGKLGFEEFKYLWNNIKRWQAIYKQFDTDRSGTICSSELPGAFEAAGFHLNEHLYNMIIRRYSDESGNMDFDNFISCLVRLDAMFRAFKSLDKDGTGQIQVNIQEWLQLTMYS
Method in brief: (§1)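 Calpain activity is measured kinetically with a quenched FRET peptide in 50 mM Tris pH 7.5, 100 mM NaCl, 1 mM DTT, with CaCl2 triggering activation. Rates over 1-5 min are plotted against log inhibitor to obtain IC50 by 4-parameter logistic fitting.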

Human Calpain 1/NS1 = target: T2, Human Calpain 1/NS1 (Homo sapiens, UniProt P07384); assay: Calpain inhibition continuous fluorescence (FRET) assay, Human Calpain 1/NS1; format: biochemical; details: read-out: Human Calpain 1/NS1 IC50
T2 sequence (P07384 1-714): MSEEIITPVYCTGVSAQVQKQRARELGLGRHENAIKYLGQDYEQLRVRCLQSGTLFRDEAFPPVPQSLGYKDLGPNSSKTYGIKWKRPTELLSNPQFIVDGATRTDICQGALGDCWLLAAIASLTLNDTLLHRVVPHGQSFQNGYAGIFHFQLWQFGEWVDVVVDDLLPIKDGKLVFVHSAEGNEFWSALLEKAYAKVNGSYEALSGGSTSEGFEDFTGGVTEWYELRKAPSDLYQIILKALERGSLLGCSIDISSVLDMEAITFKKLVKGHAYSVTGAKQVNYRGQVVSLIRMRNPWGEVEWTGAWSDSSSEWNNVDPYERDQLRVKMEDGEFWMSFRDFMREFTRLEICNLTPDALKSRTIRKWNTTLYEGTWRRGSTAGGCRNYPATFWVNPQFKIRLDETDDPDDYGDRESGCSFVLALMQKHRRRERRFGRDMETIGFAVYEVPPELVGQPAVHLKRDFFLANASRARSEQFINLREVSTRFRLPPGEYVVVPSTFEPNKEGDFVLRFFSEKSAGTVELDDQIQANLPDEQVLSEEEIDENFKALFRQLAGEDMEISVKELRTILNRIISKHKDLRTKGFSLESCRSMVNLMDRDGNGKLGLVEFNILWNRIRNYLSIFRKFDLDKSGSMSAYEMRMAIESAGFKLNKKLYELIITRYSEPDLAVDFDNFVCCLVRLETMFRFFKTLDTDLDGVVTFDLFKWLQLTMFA
T2 sequence (P04632 1-268 partner): T1 sequence (P04632 1-268 partner)
Method in brief: as §1

Human Calpain 9/NS1 = target: T3, Human Calpain 9/NS1 (Homo sapiens, UniProt O14815); assay: Calpain inhibition continuous fluorescence (FRET) assay, Human Calpain 9/NS1; format: biochemical; details: read-out: Human Calpain 9/NS1 IC50
T3 sequence (O14815 1-690): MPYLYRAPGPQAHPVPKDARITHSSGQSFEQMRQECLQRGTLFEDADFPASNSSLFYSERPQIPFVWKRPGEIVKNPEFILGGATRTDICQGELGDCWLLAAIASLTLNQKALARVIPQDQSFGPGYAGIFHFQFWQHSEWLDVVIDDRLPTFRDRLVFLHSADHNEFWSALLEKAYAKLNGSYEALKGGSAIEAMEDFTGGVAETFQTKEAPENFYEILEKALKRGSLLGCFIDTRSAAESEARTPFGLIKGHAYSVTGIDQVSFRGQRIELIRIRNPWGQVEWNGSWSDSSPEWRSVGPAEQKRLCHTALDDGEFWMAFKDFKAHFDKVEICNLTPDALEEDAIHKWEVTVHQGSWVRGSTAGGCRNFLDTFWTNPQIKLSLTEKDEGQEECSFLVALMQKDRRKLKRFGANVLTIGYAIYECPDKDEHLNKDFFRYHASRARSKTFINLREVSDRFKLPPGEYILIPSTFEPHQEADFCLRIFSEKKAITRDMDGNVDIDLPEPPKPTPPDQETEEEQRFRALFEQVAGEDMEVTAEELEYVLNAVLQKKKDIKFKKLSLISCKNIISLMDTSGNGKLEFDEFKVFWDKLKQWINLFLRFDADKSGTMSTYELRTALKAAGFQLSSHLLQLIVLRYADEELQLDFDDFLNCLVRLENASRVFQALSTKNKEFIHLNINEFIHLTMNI
T3 sequence (P04632 1-268 partner): T1 sequence (P04632 1-268 partner)
Method in brief: as §1

[2] = system: Calpain activity in SH-SY5Y cells; assay: SH-SY5Y + AMC fluorescence assay (Suc-LLVY-AMC substrate); format: cell-based; details: read-out: SH-SY5Y + AMC IC50

Row | Structure (SMILES) | IC50 [1] | IC50 (Human Calpain 2/NS1) | IC50 (Human Calpain 1/NS1) | IC50 (Human Calpain 9/NS1) | IC50 [2]
1 | Cn1cc(C(=O)NC(Cc2ccccc2)C(=O)C(N)=O)c(-c2ccc3c(c2)OC(F)(F)O3)n1 (centres unmarked) [Compound 548, N-(4-amino-3,4-dioxo-1-phenylbutan-2-yl)-3-(2,2-difluorobenzo[d][1,3]dioxol-5-yl)-1-methyl-1H-pyrazole-4-carboxamide] | > 25 µM | < 3 µM | < 3 µM | < 3 µM | > 25 µM
2 | Cc1ccc(F)c(-c2oncc2C(=O)NC(Cc2ccccc2)C(=O)C(N)=O)c1 (centres unmarked) [Compound 549, N-(4-amino-3,4-dioxo-1-phenylbutan-2-yl)-5-(2-fluoro-5-methylphenyl)isoxazole-4-carboxamide] | > 25 µM | < 3 µM | < 3 µM | < 3 µM | < 10 µM
3 | NC(=O)C(=O)C(Cc1ccccc1)NC(=O)c1cn(C(F)F)nc1-c1ccccn1 (centres unmarked) [Compound 550, N-(4-amino-3,4-dioxo-1-phenylbutan-2-yl)-1-(difluoromethyl)-3-(pyridin-2-yl)-1H-pyrazole-4-carboxamide] | > 25 µM | < 3 µM | < 3 µM | < 3 µM | 10 to 25 µM
4 | NC(=O)C(=O)C(Cc1ccccc1)NC(=O)c1cn(C(F)F)nc1-c1ccc2ccccc2c1 (centres unmarked) [Compound 551, N-(4-amino-3,4-dioxo-1-phenylbutan-2-yl)-1-(difluoromethyl)-3-(naphthalen-2-yl)-1H-pyrazole-4-carboxamide] | 10 to 25 µM | < 3 µM | < 3 µM | < 3 µM | > 25 µM
5 | NC(=O)C(=O)C(Cc1ccccc1)NC(=O)c1cn(C(F)F)nc1-c1cc(F)ccc1F (centres unmarked) [Compound 552, N-(4-amino-3,4-dioxo-1-phenylbutan-2-yl)-1-(difluoromethyl)-3-(2,5-difluorophenyl)-1H-pyrazole-4-carboxamide] | < 10 µM | < 3 µM | < 3 µM | < 3 µM | < 10 µM
6 | Cn1cc(C(=O)N[C@H](C(=O)C(N)=O)C2Cc3ccccc3C2)c(-c2ccccc2F)n1 [Compound 553, (S)—N-(3-amino-1-(2,3-dihydro-1H-inden-2-yl)-2,3-dioxopropyl)-3-(2-fluorophenyl)-1-methyl-1H-pyrazole-4-c arboxamide] | > 25 µM | < 3 µM | < 3 µM | < 3 µM | < 10 µM
7 | Cc1cc(F)cc(-c2nn(C(F)F)cc2C(=O)NC(Cc2ccccc2)C(=O)C(N)=O)c1 (centres unmarked) [Compound 554, N-(4-amino-3,4-dioxo-1-phenylbutan-2-yl)-1-(difluoromethyl)-3-(3-fluoro-5-methylphenyl)-1H-pyrazole-4-carboxamide] | < 10 µM | < 3 µM | < 3 µM | < 3 µM | < 10 µM

Now from value to compound:

Row | IC50 [1] | IC50 (Human Calpain 2/NS1) | IC50 (Human Calpain 1/NS1) | IC50 (Human Calpain 9/NS1) | IC50 [2] | Structure (SMILES)
8 | > 25 µM | < 3 µM | < 3 µM | < 3 µM | < 10 µM | NC(=O)C(=O)C(Cc1ccccc1)NC(=O)c1cn(C(F)F)nc1-c1cccc2c1OCCO2 (centres unmarked) [Compound 555]
9 | < 10 µM | < 3 µM | < 3 µM | < 3 µM | < 10 µM | NC(=O)C(=O)C(Cc1ccccc1)NC(=O)c1cnoc1-c1ccccc1F (centres unmarked) [Compound 556, N-(4-amino-3,4-dioxo-1-phenylbutan-2-yl)-5-(2-fluorophenyl)isoxazole-4-carboxamide]
10 | > 25 µM | < 3 µM | < 3 µM | < 3 µM | < 10 µM | Cc1ccccc1-c1oncc1C(=O)NC(Cc1ccccc1)C(=O)C(N)=O (centres unmarked) [Compound 557, N-(4-amino-3,4-dioxo-1-phenylbutan-2-yl)-5-(o-tolyl)isoxazole-4-carboxamide]
11 | 10 to 25 µM | < 3 µM | < 3 µM | < 3 µM | < 10 µM | Cc1ccc(F)cc1-c1oncc1C(=O)NC(Cc1ccccc1)C(=O)C(N)=O (centres unmarked) [Compound 558, N-(4-amino-3,4-dioxo-1-phenylbutan-2-yl)-5-(5-fluoro-2-methylphenyl)isoxazole-4-carboxamide]
12 | 10 to 25 µM | < 3 µM | < 3 µM | < 3 µM | > 25 µM | NC(=O)C(=O)C(Cc1ccccc1)NC(=O)c1cnoc1-c1cccc(F)c1 (centres unmarked) [Compound 559, N-(4-amino-3,4-dioxo-1-phenylbutan-2-yl)-5-(3-fluorophenyl)isoxazole-4-carboxamide]
13 | 10 to 25 µM | < 3 µM | < 3 µM | < 3 µM | > 25 µM | Cc1cccc(-c2oncc2C(=O)NC(Cc2ccccc2)C(=O)C(N)=O)c1 (centres unmarked) [Compound 560, N-(4-amino-3,4-dioxo-1-phenylbutan-2-yl)-5-(m-tolyl)isoxazole-4-carboxamide]
14 | 10 to 25 µM | < 3 µM | < 3 µM | < 3 µM | 10 to 25 µM | NC(=O)C(=O)C(Cc1ccccc1)NC(=O)c1cn(C(F)F)nc1-c1cncc2ccccc12 (centres unmarked) [Compound 561, N-(4-amino-3,4-dioxo-1-phenylbutan-2-yl)-1-(difluoromethyl)-3-(isoquinolin-4-yl)-1H-pyrazole-4-carboxamide]
15 | > 25 µM | > 10 µM | > 10 µM | > 10 µM | < 10 µM | CC#Cc1nn(-c2ccccc2)cc1C(=O)NC(Cc1ccccc1)C(=O)C(N)=O (centres unmarked) [Compound 562, N-(4-amino-3,4-dioxo-1-phenylbutan-2-yl)-1-phenyl-3-(prop-1-yn-1-yl)-1H-pyrazole-4-carb oxamide]
16 | < 10 µM | < 3 µM | < 3 µM | < 3 µM | < 10 µM | NC(=O)C(=O)C(Cc1ccccc1)NC(=O)c1cn(C(F)F)nc1-c1cccc2c1OCO2 (centres unmarked) [Compound 563, N-(4-amino-3,4-dioxo-1-phenylbutan-2-yl)-3-(benzo[d][1,3]dioxol-4-yl)-1-(difluoromethyl)-1H-pyrazole-4-carboxamide]
